Key:
Experiment in all cases: Ambit KinomeScan screening
Assay type in all cases: binding
Settings in all cases: CAL-130 10 μM
AAK1 = target: T1, AAK1 (Homo sapiens, UniProt Q2M2I8)
T1 construct: unspecified tag ("tagged kinases"); purchased Ambit (KinomeScan screening)
Procedure, shortened: (§1)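 CAL-130 was tested at 10 μM for its ability to block tagged kinases from binding an immobilized bait ligand across a 353-kinase panel. Values are expressed as percent of control binding, with lower numbers meaning stronger interaction and values above 35% classed as no hit.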

ABL1(F317I) = target: T2, ABL1(F317I) (Homo sapiens, UniProt P00519, F317I)
T2 construct: unspecified tag ("tagged kinases"); purchased Ambit (KinomeScan screening)
Procedure, shortened: as §1

ABL1(Q252H) = target: T3, ABL1(Q252H) (Homo sapiens, UniProt P00519, Q252H)
T3 construct: unspecified tag ("tagged kinases"); purchased Ambit (KinomeScan screening)
Procedure, shortened: as §1

AURKC = target: T4, AURKC (Homo sapiens, UniProt Q9UQB9)
T4 construct: purchased Ambit (KinomeScan screening service)
Procedure, shortened: as §1

BLK = target: T5, BLK (Homo sapiens, UniProt P51451)
T5 construct: purchased Ambit (KinomeScan screening service)
Procedure, shortened: as §1

BRK = target: T6, BRK (Homo sapiens, UniProt Q13882)
T6 construct: unspecified tag ("tagged kinases"); purchased Ambit (KinomeScan screening)
Procedure, shortened: as §1

CAMK2D = target: T7, CAMK2D (Homo sapiens, UniProt Q13557)
T7 construct: purchased Ambit (KinomeScan screening)
Procedure, shortened: as §1

CAMKK2 = target: T8, CAMKK2 (Homo sapiens, UniProt Q96RR4)
T8 construct: purchased Ambit (KinomeScan screening)
Procedure, shortened: as §1

CDK2 = target: T9, CDK2 (Homo sapiens, UniProt P24941)
T9 construct: purchased Ambit (KinomeScan screening)
Procedure, shortened: as §1

CLK3 = target: T10, CLK3 (Homo sapiens, UniProt P49761)
T10 construct: purchased Ambit (KinomeScan screening service)
Procedure, shortened: as §1

CSNK1G2 = target: T11, CSNK1G2 (Homo sapiens, UniProt P78368)
T11 construct: purchased Ambit (KinomeScan screening service)
Procedure, shortened: as §1

CTK = target: T12, CTK (Homo sapiens, UniProt P42679)
T12 construct: purchased Ambit (KinomeScan screening service)
Procedure, shortened: as §1

DAPK1 = target: T13, DAPK1 (Homo sapiens, UniProt P53355)
T13 construct: purchased Ambit (KinomeScan screening service)
Procedure, shortened: as §1

DCAMKL3 = target: T14, DCAMKL3 (Homo sapiens, UniProt Q9C098)
T14 construct: unspecified tag ("tagged kinases"); purchased Ambit (KinomeScan screening service)
Procedure, shortened: as §1

DMPK = target: T15, DMPK (Homo sapiens, UniProt Q09013)
T15 construct: unspecified tag ("tagged kinases"); purchased Ambit (KinomeScan screening service)
Procedure, shortened: as §1

EGFR(L858R, T790M) = target: T16, EGFR(L858R, T790M) (Homo sapiens, UniProt P00533, L858R/T790M)
T16 construct: unspecified tag; purchased Ambit (KinomeScan screening service)
Procedure, shortened: as §1

FRK = target: T17, FRK (Homo sapiens, UniProt P42685)
T17 construct: unspecified tag ('tagged kinases'); purchased Ambit (KinomeScan screening service)
Procedure, shortened: as §1

HPK1 = target: T18, HPK1 (Homo sapiens, UniProt Q92918)
T18 construct: Ambit (KinomeScan screening)
Procedure, shortened: as §1

IKK-α = target: T19, IKK-α (Homo sapiens, UniProt O15111)
T19 construct: Ambit (KinomeScan screening)
Procedure, shortened: as §1

JAK1(JH2domain) = target: T20, JAK1(JH2domain) (Homo sapiens, UniProt P23458)
T20 construct: JAK1(JH2domain); purchased Ambit (KinomeScan screening)
Procedure, shortened: as §1

JAK3(JH1domain) = target: T21, JAK3(JH1domain) (Homo sapiens, UniProt P52333)
T21 construct: JAK3(JH1domain); purchased Ambit (KinomeScan screening)
Procedure, shortened: as §1

LIMK2 = target: T22, LIMK2 (Homo sapiens, UniProt P53671)
T22 construct: unspecified tag ('tagged kinases'); purchased Ambit (KinomeScan screening service)
Procedure, shortened: as §1

MARK4 = target: T23, MARK4 (Homo sapiens, UniProt Q96L34)
T23 construct: purchased Ambit (KinomeScan screening)
Procedure, shortened: as §1

MKNK2 = target: T24, MKNK2 (Homo sapiens, UniProt Q9HBH9)
T24 construct: unspecified tag ('tagged kinases'); purchased Ambit (KinomeScan screening)
Procedure, shortened: as §1

MST2 = target: T25, MST2 (Homo sapiens, UniProt Q13188)
T25 construct: unspecified tag ('tagged kinases'); purchased Ambit (KinomeScan screening)
Procedure, shortened: as §1

NEK5 = target: T26, NEK5 (Homo sapiens, UniProt Q6P3R8)
T26 construct: unspecified tag; purchased Ambit (KinomeScan screening panel)
Procedure, shortened: as §1

OSR1 = target: T27, OSR1 (Homo sapiens, UniProt O95747)
T27 construct: purchased Ambit (KinomeScan screening service)
Procedure, shortened: as §1

PAK4 = target: T28, PAK4 (Homo sapiens, UniProt O96013)
T28 construct: tag (kind not specified); purchased Ambit (KinomeScan screening service)
Procedure, shortened: as §1

PIP5K2B = target: T29, PIP5K2B (Homo sapiens, UniProt P78356)
T29 construct: unspecified tag; purchased Ambit (KinomeScan screening panel)
Procedure, shortened: as §1

PKAC-β = target: T30, PKAC-β (Homo sapiens, UniProt P22694)
T30 construct: unspecified tag; purchased Ambit (KinomeScan screening panel)
Procedure, shortened: as §1

PRKCD = target: T31, PRKCD (Homo sapiens, UniProt Q05655)
T31 construct: purchased Ambit (KinomeScan screening service)
Procedure, shortened: as §1

PRKCH = target: T32, PRKCH (Homo sapiens, UniProt P24723)
T32 construct: purchased Ambit (KinomeScan screening service)
Procedure, shortened: as §1

RET(V804M) = target: T33, RET(V804M) (Homo sapiens, UniProt P07949, V804M)
T33 construct: tag (kind not specified); purchased Ambit (KinomeScan screening service)
Procedure, shortened: as §1

STK39 = target: T34, STK39 (Homo sapiens, UniProt Q9UEW8)
T34 construct: tag (kind not specified); purchased Ambit (KinomeScan screening service)
Procedure, shortened: as §1

p38-β = target: T35, p38-β (Homo sapiens, UniProt Q15759)
T35 construct: purchased Ambit (KinomeScan screening service)
Procedure, shortened: as §1

p38-γ = target: T36, p38-γ (Homo sapiens, UniProt P53778)
T36 construct: purchased Ambit (KinomeScan screening service)
Procedure, shortened: as §1

T27 sequence (O95747 whole entry): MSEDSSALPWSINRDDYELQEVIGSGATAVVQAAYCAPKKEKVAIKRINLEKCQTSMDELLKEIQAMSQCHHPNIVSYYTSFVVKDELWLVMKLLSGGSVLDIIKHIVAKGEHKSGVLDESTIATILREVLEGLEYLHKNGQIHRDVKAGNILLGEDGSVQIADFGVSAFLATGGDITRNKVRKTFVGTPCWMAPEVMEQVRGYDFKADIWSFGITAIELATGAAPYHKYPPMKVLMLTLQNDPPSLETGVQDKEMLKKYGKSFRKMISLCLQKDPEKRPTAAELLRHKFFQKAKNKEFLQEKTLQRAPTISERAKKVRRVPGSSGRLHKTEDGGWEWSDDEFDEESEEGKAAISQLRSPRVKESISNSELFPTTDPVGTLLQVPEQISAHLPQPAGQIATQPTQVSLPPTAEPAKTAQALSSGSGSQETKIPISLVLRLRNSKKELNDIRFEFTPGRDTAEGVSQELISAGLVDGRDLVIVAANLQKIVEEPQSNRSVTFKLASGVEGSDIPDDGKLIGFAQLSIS
T1 sequence (Q2M2I8 whole entry): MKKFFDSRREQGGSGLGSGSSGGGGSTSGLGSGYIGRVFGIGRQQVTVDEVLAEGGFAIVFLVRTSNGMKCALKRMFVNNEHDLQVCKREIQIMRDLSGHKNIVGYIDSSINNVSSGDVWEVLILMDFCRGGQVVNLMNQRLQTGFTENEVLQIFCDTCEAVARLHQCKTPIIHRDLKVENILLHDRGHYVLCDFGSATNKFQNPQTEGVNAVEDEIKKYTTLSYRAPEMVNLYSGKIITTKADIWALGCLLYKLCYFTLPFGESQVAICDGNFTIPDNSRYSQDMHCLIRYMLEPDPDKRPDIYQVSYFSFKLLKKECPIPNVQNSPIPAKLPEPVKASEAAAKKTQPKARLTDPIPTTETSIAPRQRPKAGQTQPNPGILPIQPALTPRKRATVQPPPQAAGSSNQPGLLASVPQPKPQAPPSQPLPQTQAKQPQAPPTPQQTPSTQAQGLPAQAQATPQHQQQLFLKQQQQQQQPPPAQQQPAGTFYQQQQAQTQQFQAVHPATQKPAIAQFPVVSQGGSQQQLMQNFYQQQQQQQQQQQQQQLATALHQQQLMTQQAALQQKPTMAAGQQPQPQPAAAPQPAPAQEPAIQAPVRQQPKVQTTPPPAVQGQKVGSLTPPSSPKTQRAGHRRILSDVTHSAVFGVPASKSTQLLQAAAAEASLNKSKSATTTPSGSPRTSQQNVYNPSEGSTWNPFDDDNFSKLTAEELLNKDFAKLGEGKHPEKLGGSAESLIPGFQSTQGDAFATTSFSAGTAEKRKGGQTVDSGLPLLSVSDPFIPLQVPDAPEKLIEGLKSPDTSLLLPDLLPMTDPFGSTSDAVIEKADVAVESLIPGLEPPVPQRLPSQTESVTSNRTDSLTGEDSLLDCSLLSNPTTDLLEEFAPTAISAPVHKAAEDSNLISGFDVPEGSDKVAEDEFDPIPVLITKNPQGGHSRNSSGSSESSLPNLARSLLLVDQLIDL
T28 sequence (O96013 whole entry): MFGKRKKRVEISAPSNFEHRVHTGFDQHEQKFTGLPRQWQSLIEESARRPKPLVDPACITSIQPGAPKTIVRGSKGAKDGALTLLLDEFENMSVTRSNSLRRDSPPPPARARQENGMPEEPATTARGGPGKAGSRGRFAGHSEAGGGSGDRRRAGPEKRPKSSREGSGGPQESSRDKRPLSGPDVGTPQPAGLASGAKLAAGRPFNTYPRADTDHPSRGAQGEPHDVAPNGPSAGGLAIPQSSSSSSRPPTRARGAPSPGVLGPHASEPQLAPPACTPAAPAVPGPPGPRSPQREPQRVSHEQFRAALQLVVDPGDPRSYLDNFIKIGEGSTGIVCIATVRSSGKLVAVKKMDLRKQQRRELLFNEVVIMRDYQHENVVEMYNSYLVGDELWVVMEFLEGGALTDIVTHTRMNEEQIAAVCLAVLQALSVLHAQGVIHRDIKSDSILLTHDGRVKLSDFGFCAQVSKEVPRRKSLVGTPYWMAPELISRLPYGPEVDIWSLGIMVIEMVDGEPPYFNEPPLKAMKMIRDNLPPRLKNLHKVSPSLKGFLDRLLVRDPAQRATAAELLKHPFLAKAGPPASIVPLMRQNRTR
T22 sequence (P53671 whole entry): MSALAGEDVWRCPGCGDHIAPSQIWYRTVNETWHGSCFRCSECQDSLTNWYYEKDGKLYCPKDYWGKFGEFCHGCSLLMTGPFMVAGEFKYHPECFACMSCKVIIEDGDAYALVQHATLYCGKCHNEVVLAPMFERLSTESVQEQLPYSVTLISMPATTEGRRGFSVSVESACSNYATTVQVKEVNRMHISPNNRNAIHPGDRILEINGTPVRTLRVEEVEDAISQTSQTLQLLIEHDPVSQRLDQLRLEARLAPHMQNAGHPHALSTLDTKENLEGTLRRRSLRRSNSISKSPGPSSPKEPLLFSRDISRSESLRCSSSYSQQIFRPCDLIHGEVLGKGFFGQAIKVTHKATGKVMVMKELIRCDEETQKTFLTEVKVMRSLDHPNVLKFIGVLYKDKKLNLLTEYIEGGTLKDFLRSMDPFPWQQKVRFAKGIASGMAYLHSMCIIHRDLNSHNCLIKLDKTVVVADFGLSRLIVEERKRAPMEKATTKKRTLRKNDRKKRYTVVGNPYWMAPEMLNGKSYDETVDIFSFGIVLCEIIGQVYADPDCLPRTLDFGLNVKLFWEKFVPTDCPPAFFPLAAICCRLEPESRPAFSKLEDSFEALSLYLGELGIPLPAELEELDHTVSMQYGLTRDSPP
T15 sequence (Q09013 whole entry): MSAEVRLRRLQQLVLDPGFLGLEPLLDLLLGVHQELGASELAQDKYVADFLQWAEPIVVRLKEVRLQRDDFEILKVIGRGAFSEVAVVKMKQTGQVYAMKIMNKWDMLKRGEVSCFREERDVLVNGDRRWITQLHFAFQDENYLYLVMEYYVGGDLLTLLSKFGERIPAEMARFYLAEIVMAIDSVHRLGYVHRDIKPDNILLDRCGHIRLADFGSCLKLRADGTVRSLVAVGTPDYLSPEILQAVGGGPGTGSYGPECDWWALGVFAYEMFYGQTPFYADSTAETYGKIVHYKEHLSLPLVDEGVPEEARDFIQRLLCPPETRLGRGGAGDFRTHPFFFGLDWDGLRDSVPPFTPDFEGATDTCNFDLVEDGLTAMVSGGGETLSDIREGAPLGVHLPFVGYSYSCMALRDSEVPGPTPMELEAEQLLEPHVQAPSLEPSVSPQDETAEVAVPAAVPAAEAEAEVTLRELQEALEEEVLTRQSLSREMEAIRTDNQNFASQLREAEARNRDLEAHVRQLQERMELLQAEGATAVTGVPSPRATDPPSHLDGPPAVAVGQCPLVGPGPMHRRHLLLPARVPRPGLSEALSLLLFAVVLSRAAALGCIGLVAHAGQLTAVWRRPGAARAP
T31 sequence (Q05655 whole entry): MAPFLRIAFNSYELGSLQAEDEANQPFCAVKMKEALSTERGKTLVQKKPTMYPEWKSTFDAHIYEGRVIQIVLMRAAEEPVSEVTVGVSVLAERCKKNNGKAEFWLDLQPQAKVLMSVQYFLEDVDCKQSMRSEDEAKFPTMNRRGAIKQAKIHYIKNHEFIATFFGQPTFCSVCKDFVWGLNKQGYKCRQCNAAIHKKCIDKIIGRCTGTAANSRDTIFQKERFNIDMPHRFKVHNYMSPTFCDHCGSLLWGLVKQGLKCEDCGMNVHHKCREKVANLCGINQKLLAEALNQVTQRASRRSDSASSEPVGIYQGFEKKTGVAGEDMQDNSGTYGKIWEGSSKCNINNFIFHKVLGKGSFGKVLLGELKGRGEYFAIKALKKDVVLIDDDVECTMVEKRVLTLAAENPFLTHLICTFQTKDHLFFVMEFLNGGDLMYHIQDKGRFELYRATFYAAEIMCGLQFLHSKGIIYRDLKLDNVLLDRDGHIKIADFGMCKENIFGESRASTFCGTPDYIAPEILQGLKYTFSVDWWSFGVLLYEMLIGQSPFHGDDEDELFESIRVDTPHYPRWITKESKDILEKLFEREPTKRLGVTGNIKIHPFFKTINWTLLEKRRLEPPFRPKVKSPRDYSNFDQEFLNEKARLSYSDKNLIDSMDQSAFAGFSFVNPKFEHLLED
T6 sequence (Q13882 whole entry): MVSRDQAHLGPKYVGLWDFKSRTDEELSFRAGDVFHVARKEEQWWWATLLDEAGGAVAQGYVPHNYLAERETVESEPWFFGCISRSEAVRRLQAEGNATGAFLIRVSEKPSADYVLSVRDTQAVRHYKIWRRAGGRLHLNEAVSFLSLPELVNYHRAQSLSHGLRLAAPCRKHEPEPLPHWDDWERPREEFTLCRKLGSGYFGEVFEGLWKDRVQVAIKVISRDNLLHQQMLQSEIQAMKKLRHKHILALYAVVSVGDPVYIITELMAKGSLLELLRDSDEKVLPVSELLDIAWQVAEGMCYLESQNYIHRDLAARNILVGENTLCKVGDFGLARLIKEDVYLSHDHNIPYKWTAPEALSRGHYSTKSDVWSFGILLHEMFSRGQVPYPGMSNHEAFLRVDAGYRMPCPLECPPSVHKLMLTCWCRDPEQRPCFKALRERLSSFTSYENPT
T12 sequence (P42679 whole entry): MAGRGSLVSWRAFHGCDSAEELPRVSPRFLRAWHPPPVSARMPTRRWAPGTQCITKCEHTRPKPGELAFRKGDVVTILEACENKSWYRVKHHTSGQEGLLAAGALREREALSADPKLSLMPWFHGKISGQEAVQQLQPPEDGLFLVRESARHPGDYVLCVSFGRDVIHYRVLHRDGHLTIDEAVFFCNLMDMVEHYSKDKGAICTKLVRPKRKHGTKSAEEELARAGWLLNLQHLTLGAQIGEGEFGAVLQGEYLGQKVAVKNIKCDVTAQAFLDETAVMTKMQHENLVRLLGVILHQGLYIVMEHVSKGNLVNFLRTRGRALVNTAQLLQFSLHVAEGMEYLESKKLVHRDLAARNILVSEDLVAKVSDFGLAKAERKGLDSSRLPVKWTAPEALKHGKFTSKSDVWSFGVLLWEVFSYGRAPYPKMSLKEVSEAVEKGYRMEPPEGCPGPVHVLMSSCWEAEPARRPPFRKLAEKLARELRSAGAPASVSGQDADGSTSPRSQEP

Cc1ccccc1-n1c(C(C)Nc2nc(N)nc3nc[nH]c23)nc2cccc(C)c2c1=O (stereo not drawn) [CAL-130] was tested, and the “Percent of Control Binding” value (AAK1) was 100%, the “Percent of Control Binding” value (ABL1(F317I)) was 100% and the “Percent of Control Binding” value (ABL1(Q252H)) was 100%. For the same molecule, the “Percent of Control Binding” value (AURKC) was 100%, the “Percent of Control Binding” value (BLK) was 100% and the “Percent of Control Binding” value (BRK) was 100%. The “Percent of Control Binding” value (CAMK2D) was 100%, the “Percent of Control Binding” value (CAMKK2) was 18% and the “Percent of Control Binding” value (CDK2) was 100%. For the same molecule, the “Percent of Control Binding” value (CLK3) was 100%, the “Percent of Control Binding” value (CSNK1G2) was 100% and the “Percent of Control Binding” value (CTK) was 100%. The “Percent of Control Binding” value (DAPK1) was 100%, the “Percent of Control Binding” value (DCAMKL3) was 100% and the “Percent of Control Binding” value (DMPK) was 100%. The “Percent of Control Binding” value (EGFR(L858R, T790M)) was 100%, the “Percent of Control Binding” value (FRK) was 100% and the “Percent of Control Binding” value (HPK1) was 100%. For the same molecule, the “Percent of Control Binding” value (IKK-α) was 100%, the “Percent of Control Binding” value (JAK1(JH2domain)) was 100% and the “Percent of Control Binding” value (JAK3(JH1domain)) was 100%. The “Percent of Control Binding” value (LIMK2) was 100%, the “Percent of Control Binding” value (MARK4) was 100% and the “Percent of Control Binding” value (MKNK2) was 16%. For the same molecule, the “Percent of Control Binding” value (MST2) was 100%, the “Percent of Control Binding” value (NEK5) was 100% and the “Percent of Control Binding” value (OSR1) was 100%. The “Percent of Control Binding” value (PAK4) was 100%, the “Percent of Control Binding” value (PIP5K2B) was 100% and the “Percent of Control Binding” value (PKAC-β) was 100%. The “Percent of Control Binding” value (PRKCD) was 100%, the “Percent of Control Binding” value (PRKCH) was 100% and the “Percent of Control Binding” value (RET(V804M)) was 100%. For the same molecule, the “Percent of Control Binding” value (STK39) was 100%, the “Percent of Control Binding” value (p38-β) was 100% and the “Percent of Control Binding” value (p38-γ) was 100%.
